Measurements reported in patent US20060069132A1, “Azolecarboxamide herbicides” (priority 2004, published 2006).

Key:
velvetleaf = assay: Test B pre-/postemergence herbicide test; type: in vivo, Abutilon theophrasti; settings: for Velvetleaf plant response rating: postemergence, scale 0 (no effect) to 100 (complete control)
Summary of the method: (§1)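 Seeds were planted and treated preemergence with compounds formulated in a non-phytotoxic solvent mixture containing surfactant, while plants at the 1- to 4-leaf stage (2 to 18 cm) received postemergence sprays. Flooded paddy plants were grown to the 2-leaf stage. After 13 to 15 days in a greenhouse, injury was visually rated 0–100 against untreated controls.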

morningglory = assay: Test B pre-/postemergence herbicide test; type: in vivo, Ipomoea coccinea; settings: for Morningglory plant response rating: postemergence, scale 0 (no effect) to 100 (complete control)
Summary of the method: as §1

ducksalad [1] = assay: Test C flooded paddy test; type: in vivo, Heteranthera limosa
blackgrass = assay: Test B postemergence herbicide test; type: in vivo, Alopecurus myosuroides; settings: postemergence, visual rating, scale 0 (no effect) to 100 (complete control)
Summary of the method: (§2)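 Postemergence plants were sprayed with formulated test chemicals at 2 to 18 cm height (1- to 4-leaf stage); paddy species were grown to the 2-leaf stage. After 13 to 15 days in a greenhouse, injury was rated visually against untreated controls on a 0–100 scale (0 = no effect, 100 = complete control).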

wild oat = assay: Test B postemergence herbicide test; type: in vivo, Avena fatua; settings: postemergence, visual rating, scale 0 (no effect) to 100 (complete control)
Summary of the method: as §2

cocklebur = assay: Test B pre-/postemergence herbicide test; type: in vivo, Xanthium strumarium; settings: for Cocklebur plant response rating: postemergence, scale 0 (no effect) to 100 (complete control)
Summary of the method: as §1

[2] = tested on: smallflower umbrella sedge; assay: Test C flooded paddy test; type: in vivo, Cyperus difformis
Surinam grass = assay: Test B pre-/postemergence herbicide test; type: in vivo, Urochloa decumbens; settings: for Surinam Grass plant response rating: postemergence, scale 0 (no effect) to 100 (complete control)
Summary of the method: as §1

barnyardgrass [3] = assay: Test B flooded paddy test; type: in vivo, Echinochloa crus-galli; settings: 1000 g ai/ha, visual rating, scale 0 to 100 (0 no effect, 100 complete control), 13 to 15 days
Summary of the method: as §2

large crabgrass = assay: Test B pre-/postemergence herbicide test; type: in vivo, Digitaria sanguinalis; settings: for Crabgrass, Large plant response rating: postemergence, scale 0 (no effect) to 100 (complete control)
Summary of the method: as §1

ducksalad [4] = assay: Test B flooded paddy test; type: in vivo, Heteranthera limosa; settings: 1000 g ai/ha, visual rating, scale 0 to 100 (0 no effect, 100 complete control), 13 to 15 days
Summary of the method: as §2

wheat = assay: Test B postemergence herbicide test; type: in vivo, Triticum aestivum; set-up: key to Wheat plant response rating: 0 = no effect, 100 = complete control; settings: postemergence, visual rating, scale 0 (no effect) to 100 (complete control)
Summary of the method: as §2

rice [5] = assay: Test C flooded paddy test; type: in vivo, Oryza sativa
Summary of the method: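 Plants were grown to the 1- to 4-leaf stage (2–18 cm) and then treated postemergence, or grown to the 2-leaf stage for the flooded paddy test. They were held in a greenhouse for 12 to 14 days and then scored by eye against controls, where 0 is no effect and 100 is complete control.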

giant foxtail = assay: Test B pre-/postemergence herbicide test; type: in vivo, Setaria faberi; settings: for Foxtail, Giant plant response rating: postemergence, scale 0 (no effect) to 100 (complete control)
Summary of the method: as §1

pigweed = assay: Test B pre-/postemergence herbicide test; type: in vivo, Amaranthus retroflexus; settings: for Pigweed plant response rating: postemergence, scale 0 (no effect) to 100 (complete control)
Summary of the method: as §1

rice [6] = assay: Test B flooded paddy test; type: in vivo, Oryza sativa; settings: 1000 g ai/ha, visual rating, scale 0 to 100 (0 no effect, 100 complete control), 13 to 15 days
Summary of the method: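 Visual ratings, 0 (no effect) to 100 (complete control), made versus controls after 13–15 d greenhouse. Paddy plants treated at 2-leaf stage; postemergence plants at 1- to 4-leaf stage, 2–18 cm tall.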

corn = assay: Test B pre-/postemergence herbicide test; type: in vivo, Zea mays; settings: for Corn plant response rating: postemergence, scale 0 (no effect) to 100 (complete control)
Summary of the method: as §1

[7] = tested on: small flower umbrella sedge; assay: Test B flooded paddy test; type: in vivo, Cyperus difformis; settings: 1000 g ai/ha, visual rating, scale 0 to 100 (0 no effect, 100 complete control), 13 to 15 days
Summary of the method: as §2

barnyardgrass [8] = assay: Test C flooded paddy test; type: in vivo, Echinochloa crus-galli
Summary of the method: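 Postemergence sprays applied to plants 2 to 18 cm tall (1- to 4-leaf stage); paddy species grown to 2-leaf stage under flooding. After 12 to 14 days in greenhouse, visual rating versus untreated controls on 0–100 scale (0 no effect, 100 complete control).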

lambsquarters = assay: Test B pre-/postemergence herbicide test; type: in vivo, Chenopodium album; settings: for Lambsquarters plant response rating: postemergence, visual rating, scale 0 (no effect) to 100 (complete control)
Summary of the method: as §1

rice [9] = assay: Test B pre-/postemergence herbicide test; type: in vivo, Oryza sativa; settings: 0 = no effect, 100 = complete control, preemergence
Summary of the method: as §1

barnyardgrass [10] = assay: Test B pre-/postemergence herbicide test; type: in vivo, Echinochloa crus-galli; settings: for Barnyardgrass plant response rating: postemergence, scale 0 (no effect) to 100 (complete control)
Summary of the method: as §1

[11] = 125 g ai/ha, 0 = no effect, 100 = complete control, preemergence
[12] = 500 g ai/ha, visual rating, 0 = no effect, 100 = complete control, preemergence
[13] = 62 g ai/ha, scale 0 to 100 (0 no effect, 100 complete control)
[14] = 125 g ai/ha, scale 0 to 100 (0 no effect, 100 complete control)
[15] = 250 g ai/ha, scale of 0 to 100, 0 is no effect, 100 is complete control
[16] = 500 g ai/ha, visual rating after 12 to 14 days, scale 0 to 100 (0 no effect, 100 complete control)

`CCc1nc(C(C)(C)C)sc1C(=O)Nc1cc(C(=O)N(C)C)ccc1F` [Compound 225] was tested, and the “Velvetleaf plant response rating (0 to 100 scale)” value (velvetleaf; [11]) was 30, the “Plant response rating, Velvetleaf” value (velvetleaf; [12]) was 100 and the “Velvetleaf plant response rating” value (velvetleaf; 125 g ai/ha, visual rating) was 30. For the same molecule, the “Velvetleaf plant response rating” value (velvetleaf; 500 g ai/ha, visual rating) was 40, the “Morningglory plant response rating (0 to 100 scale)” value (morningglory; [11]) was 0 and the “Plant response rating, Morningglory” value (morningglory; [12]) was 10. For the same molecule, the “Morningglory plant response rating” value (morningglory; 125 g ai/ha, visual rating) was 10, the “Morningglory plant response rating” value (morningglory; 500 g ai/ha, visual rating) was 40 and the “Ducksalad plant response rating” value (ducksalad [1]; [13]) was 10. The “Ducksalad plant response rating” value (ducksalad [1]; [14]) was 75, the “Ducksalad plant response rating” value (ducksalad [1]; [15]) was 85 and the “Plant response rating, Ducksalad” value (ducksalad [1]; [16]) was 85. The “Blackgrass plant response rating” value (blackgrass; 125 g ai/ha) was 20, the “Blackgrass plant response rating” value (blackgrass; 500 g ai/ha) was 40 and the “Oat, Wild plant response rating” value (wild oat; 125 g ai/ha) was 0. For the same molecule, the “Oat, Wild plant response rating” value (wild oat; 500 g ai/ha) was 30, the “Cocklebur plant response rating (0 to 100 scale)” value (cocklebur; [11]) was 0 and the “Plant response rating, Cocklebur” value (cocklebur; [12]) was 40. For the same molecule, the “Cocklebur plant response rating” value (cocklebur; 125 g ai/ha, visual rating) was 20, the “Cocklebur plant response rating” value (cocklebur; 500 g ai/ha, visual rating) was 20 and the “Sedge, Umbrella plant response rating” value [2, 13] was 65. For the same molecule, the “Sedge, Umbrella plant response rating” value [2, 14] was 75, the “Sedge, Umbrella plant response rating” value [2, 15] was 75 and the “Plant response rating, Sedge, Umbrella” value [2, 16] was 80. For the same molecule, the “Surinam Grass plant response rating (0 to 100 scale)” value (Surinam grass; [11]) was 20, the “Plant response rating, Surinam Grass” value (Surinam grass; [12]) was 90 and the “Surinam Grass plant response rating” value (Surinam grass; 125 g ai/ha, visual rating) was 10. The “Surinam Grass plant response rating” value (Surinam grass; 500 g ai/ha, visual rating) was 20, the “Barnyardgrass plant response rating” value (barnyardgrass [3]) was 90 and the “Crabgrass, Large plant response rating (0 to 100 scale)” value (large crabgrass; [11]) was 10. For the same molecule, the “Plant response rating, Crabgrass, Large” value (large crabgrass; [12]) was 100, the “Crabgrass, Large plant response rating” value (large crabgrass; 125 g ai/ha, visual rating) was 10 and the “Crabgrass, Large plant response rating” value (large crabgrass; 500 g ai/ha, visual rating) was 20. The “Ducksalad plant response rating” value (ducksalad [4]) was 90, the “Wheat plant response rating” value (wheat; 125 g ai/ha) was 10 and the “Wheat plant response rating” value (wheat; 500 g ai/ha) was 30. For the same molecule, the “Rice plant response rating” value (rice [5]; [13]) was 55, the “Rice plant response rating” value (rice [5]; [14]) was 70 and the “Rice plant response rating” value (rice [5]; [15]) was 75. The “Plant response rating, Rice” value (rice [5]; [16]) was 80, the “Foxtail, Giant plant response rating (0 to 100 scale)” value (giant foxtail; [11]) was 60 and the “Plant response rating, Foxtail, Giant” value (giant foxtail; [12]) was 100. For the same molecule, the “Foxtail, Giant plant response rating” value (giant foxtail; 125 g ai/ha, visual rating) was 10, the “Foxtail, Giant plant response rating” value (giant foxtail; 500 g ai/ha, visual rating) was 20 and the “Pigweed plant response rating (0 to 100 scale)” value (pigweed; [11]) was 70. For the same molecule, the “Plant response rating, Pigweed” value (pigweed; [12]) was 100, the “Pigweed plant response rating” value (pigweed; 125 g ai/ha, visual rating) was 40 and the “Pigweed plant response rating” value (pigweed; 500 g ai/ha, visual rating) was 70. The “Rice plant response rating” value (rice [6]) was 90, the “Corn plant response rating (0 to 100 scale)” value (corn; [11]) was 30 and the “Plant response rating, Corn” value (corn; [12]) was 70. The “Corn plant response rating” value (corn; 125 g ai/ha, visual rating) was 10, the “Corn plant response rating” value (corn; 500 g ai/ha, visual rating) was 20 and the “Sedge, Umbrella plant response rating” value [7] was 90. The “Barnyardgrass plant response rating” value (barnyardgrass [8]; [13]) was 35, the “Barnyardgrass plant response rating” value (barnyardgrass [8]; [14]) was 60 and the “Barnyardgrass plant response rating” value (barnyardgrass [8]; [15]) was 80. For the same molecule, the “Plant response rating, Barnyardgrass” value (barnyardgrass [8]; [16]) was 90, the “Lambsquarters plant response rating (0 to 100 scale)” value (lambsquarters; [11]) was 80 and the “Lambsquarters plant response rating” value (lambsquarters; 125 g ai/ha) was 50. The “Lambsquarters plant response rating” value (lambsquarters; 500 g ai/ha) was 70, the “Rice plant response rating (0 to 100 scale)” value (rice [9]; 125 g ai/ha) was 60 and the “Plant response rating, Rice” value (rice [9]; 500 g ai/ha, visual rating) was 90. For the same molecule, the “Barnyardgrass plant response rating (0 to 100 scale)” value (barnyardgrass [10]; [11]) was 60, the “Plant response rating, Barnyardgrass” value (barnyardgrass [10]; [12]) was 90 and the “Barnyardgrass plant response rating” value (barnyardgrass [10]; 125 g ai/ha, visual rating) was 10. The “Barnyardgrass plant response rating” value (barnyardgrass [10]; 500 g ai/ha, visual rating) was 30.
